According to patent US20260125375A1 (Pfizer Inc., priority 2022, published 2026):

Experiments:
[1] = target: T1, C-CBL (residues 46-435) (Homo sapiens, UniProt P22681); experiment: Ligand Displacement Assay (LDA), HTRF competitive binding against BODIPY-labeled fluorescent tracer, C-CBL; details: geometric mean of the number of tests, read-out: C-CBL Ki (nM) GMean
T1 construct: Purified CBL-B (residues 36-427) and C-CBL (residues 46-435) proteins from baculovirus-infected insect cells; made in house; host or cells: baculovirus-infected insect cells
T1 sequence (P22681 46-435): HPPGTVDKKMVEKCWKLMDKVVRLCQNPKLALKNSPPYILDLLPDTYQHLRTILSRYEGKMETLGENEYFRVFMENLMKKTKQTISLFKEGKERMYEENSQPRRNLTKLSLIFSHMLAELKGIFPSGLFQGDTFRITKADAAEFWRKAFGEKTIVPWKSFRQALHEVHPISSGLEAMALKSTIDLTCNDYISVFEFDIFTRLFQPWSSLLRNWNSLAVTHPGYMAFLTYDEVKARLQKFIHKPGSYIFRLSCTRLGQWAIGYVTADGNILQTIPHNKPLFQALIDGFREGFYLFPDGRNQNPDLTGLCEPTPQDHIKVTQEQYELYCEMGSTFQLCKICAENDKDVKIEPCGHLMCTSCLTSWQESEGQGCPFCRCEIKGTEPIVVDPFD
Text: (§1) Ligand Displacement Assay (LDA)
(§2) The purpose of the homogeneous time-resolved fluorescence energy transfer (HTRF) ligand displacement assay is to determine whether the compounds of the disclosure are competitive with a BODIPY-labeled compound; “fluorescent tracer” aka [6-cyclopropyl-5-(17-{5-[(3,5-dimethyl-2H-pyrrol-2-ylidene-KN)methyl]-1H-pyrrol-2-yl-κN}-15-oxo-5,8,11-trioxa-2,14-diazaheptadecan-1-yl)-N-(3-{3-[(4-methyl-4H-1,2,4-triazol-3-yl)methyl]oxetan-3-yl}phenyl)pyridine-2-carboxamidato](difluorido)boron and to assess CBL-B binding selectivity over C-CBL. The synthesis of this fluorescent tracer compound is described below.
(§3) Purified CBL-B (residues 36-427) and C-CBL (residues 46-435) proteins from baculovirus-infected insect cells were biotin labeled on their amino-terminal AviTag™ epitopes by the E. coli biotin ligase BirA to bind terbium-labeled streptavidin (SA-Tb). After optimizing the assays and determining KD values for the fluorescent tracer to CBL-B and C-CBL, compounds were tested using three-fold serial dilutions in duplicate from a top concentration of […] with a final DMSO concentration of 2%. […] The Ki (nM) values reported are the geometric means (GMean) of the number of tests conducted.

[2] = target: T2, CBL-B (residues 36-427) (Homo sapiens, UniProt Q13191); experiment: Ligand Displacement Assay (LDA), HTRF competitive binding against BODIPY-labeled fluorescent tracer, CBL-B; details: geometric mean of the number of tests, read-out: CBL-B Ki (nM) GMean
T2 construct: Purified CBL-B (residues 36-427) and C-CBL (residues 46-435) proteins from baculovirus-infected insect cells; made in house; host or cells: baculovirus-infected insect cells
Text: as §1, §2, §3

Row | Structure (SMILES) | Ki [1] | Ki [2]
1 | CC(N[C@H]1CCC[C@@H]1O)c1nc(C(F)(F)F)cc2c(-c3cccc([C@H](c4nncn4C)C4CCCCC4)c3)n[nH]c12 (single isomer, unassigned) [Example C102] | 113 nM | 10.7 nM
2 | CC(N[C@H](C)[C@H](C)O)c1nc(C(F)(F)F)cc2c(-c3cccc([C@H](c4nncn4C)C4CCC4)c3)n[nH]c12 (single isomer, unassigned) [Example C116] | 204 nM | 18.2 nM
3 | CC(NC[C@H](C)O)c1nccc2c(-c3cccc([C@H](c4nncn4C)C4CCC4)c3)n[nH]c12 (single isomer, unassigned) [Example C125] | 147 nM | 12.2 nM
4 | C[C@H](N[C@H]1COC[C@H]1O)c1nc(C(F)(F)F)cc2c(-c3cccc([C@H](c4nncn4C)C4CCC4)c3)n[nH]c12 (single isomer, unassigned) [Example D57] | 46.7 nM | 5.2 nM
5 | C[C@@H](N[C@H]1COC[C@H]1O)c1nc(C(F)(F)F)cc2c(-c3cccc([C@H](c4nncn4C)C4CCC4)c3)n[nH]c12 (single isomer, unassigned) [Example D58] | 173 nM | 14.3 nM
6 | C[C@@H](N[C@@H]1COC[C@H]1O)c1nc(C(F)(F)F)cc2c(-c3cccc([C@H](c4nncn4C)C4CCC4)c3)n[nH]c12 (single isomer, unassigned) [Example D60] | 82.3 nM | 12.3 nM
7 | C[C@H](N[C@H]1COC[C@H]1O)c1nc(C(F)(F)F)cc2c(-c3cccc([C@H](c4nncn4C)C4CCC4)c3)n[nH]c12 (single isomer, unassigned) [Example D61] | 145 nM | 22 nM
8 | C[C@@H](N[C@H]1COC[C@@H]1O)c1nc(C(F)(F)F)cc2c(-c3cccc([C@H](c4nncn4C)C4CCC4)c3)n[nH]c12 (single isomer, unassigned) [Example D62] | 39.8 nM | 4.3 nM
9 | CC[C@@H](c1cccc(-c2n[nH]c3c([C@H](C)NC[C@H](C)O)nc(C(F)(F)F)cc23)c1)c1nncn1C (single isomer, unassigned) [Example D78] | 271 nM | 71.2 nM
10 | CC[C@@H](c1cccc(-c2n[nH]c3c([C@@H](C)NC[C@H](C)O)nc(C(F)(F)F)cc23)c1)c1nncn1C (single isomer, unassigned) [Example D79] | 1160 nM | 296 nM
11 | Cn1cnnc1[C@@H](c1cccc(-c2n[nH]c3c(CN[C@H]4CC[C@H]4O)nc(C(F)(F)F)cc23)c1)C1CCC1 (single isomer, unassigned) [Example D92] | 36.1 nM | 4.5 nM
12 | Cn1cnnc1[C@@H](c1cccc(-c2n[nH]c3c(CN[C@@H]4CC[C@@H]4O)nc(C(F)(F)F)cc23)c1)C1CCC1 (single isomer, unassigned) [Example D93] | 2.4 nM | 0.8 nM
13 | CC(O)c1nc(C2CC2)cc2c(-c3cccc(C4(Cc5nncn5C)COC4)c3)n[nH]c12 (single isomer, unassigned) [Example H5, (1ξ)-1-[5-cyclopropyl-3-(3-{3-[(4-methyl-4H-1,2,4-triazol-3-yl)methyl]oxetan-3-yl}phenyl)-1H-pyrazolo[3,4-c]pyridin-7-yl]ethan-1-ol] | 93.6 nM | 28.5 nM
14 | CC(O)c1nc(C2CC2)cc2c(-c3cccc(C4(Cc5nncn5C)COC4)c3)n[nH]c12 (single isomer, unassigned) [Example H6, (1ξ)-1-[5-cyclopropyl-3-(3-{3-[(4-methyl-4H-1,2,4-triazol-3-yl)methyl]oxetan-3-yl}phenyl)-1H-pyrazolo[3,4-c]pyridin-7-yl]ethan-1-ol] | 142 nM | 35.6 nM
15 | CC(NC(=O)[C@@H](C)O)c1nc(C(F)(F)F)cc2c(-c3cccc([C@H](c4nncn4C)C4CCC4)c3)n[nH]c12 (single isomer, unassigned) [Example I6] | 84.3 nM | 7.8 nM
16 | Cn1cnnc1[C@@H](c1cccc(-c2n[nH]c3c(C4CCCN4)nc(C(F)(F)F)cc23)c1)C1CCC1 (single isomer, unassigned) [Example L3] | 159 nM | 20.1 nM
17 | Cn1cnnc1[C@@H](c1cccc(-c2n[nH]c3c(C4CCCN4)nc(C(F)(F)F)cc23)c1)C1CCC1 (single isomer, unassigned) [Example L4] | 178 nM | 19.2 nM
18 | CC(=O)NC(C)c1nc(C(F)(F)F)cc2c(-c3cccc(C4(Cc5nncn5C)COC4)c3)n[nH]c12 (single isomer, unassigned) [Example M1, N-{(1ξ)-1-[3-(3-{3-[(4-methyl-4H-1,2,4-triazol-3-yl)methyl]oxetan-3-yl}phenyl)-5-(trifluoromethyl)-1H-pyrazolo[3,4-c]pyridin-7-yl]ethyl}acetamide] | 79.4 nM | 26.3 nM
19 | CC(=O)NC(C)c1nc(C(F)(F)F)cc2c(-c3cccc([C@H](c4nncn4C)C4CCC4)c3)n[nH]c12 (single isomer, unassigned) [Example M2] | 225 nM | 30.9 nM
20 | CC(=O)NC(C)c1nc(C(F)(F)F)cc2c(-c3cccc(C4(Cc5nncn5C)COC4)c3)n[nH]c12 (single isomer, unassigned) [Example M6, N-{(1ξ)-1-[3-(3-{3-[(4-methyl-4H-1,2,4-triazol-3-yl)methyl]oxetan-3-yl}phenyl)-5-(trifluoromethyl)-1H-pyrazolo[3,4-c]pyridin-7-yl]ethyl}acetamide] | 68.6 nM | 19.5 nM
21 | Cn1cnnc1[C@@H](c1cccc(-c2n[nH]c3ncc(Cl)cc23)c1)C1CCC1 [Example A4, 5-chloro-3-{3-[(R)-cyclobutyl(4-methyl-4H-1,2,4-triazol-3-yl)methyl]phenyl}-1H-pyrazolo[3,4-b]pyridine] | 279 nM | 17.9 nM
22 | Cn1cnnc1[C@@H](c1cccc(-c2n[nH]c3ncc(C(F)(F)F)cc23)c1)C1CCC1 [Example A5, 3-{3-[(R)-cyclobutyl(4-methyl-4H-1,2,4-triazol-3-yl)methyl]phenyl}-5-(trifluoromethyl)-1H-pyrazolo[3,4-b]pyridine] | 1060 nM | 89.1 nM
23 | Cn1cnnc1CC1(c2cccc(-c3n[nH]c4cnc(C(F)(F)F)nc34)c2)COC1 [Example B2, 3-(3-{3-[(4-methyl-4H-1,2,4-triazol-3-yl)methyl]oxetan-3-yl}phenyl)-5-(trifluoromethyl)-1H-pyrazolo[4,3-d]pyrimidine] | 2400 nM | 398 nM
24 | Cn1cnnc1CC1(c2cccc(-c3n[nH]c4cc(F)c(F)cc34)c2)COC1 [Example B5, 5,6-difluoro-3-(3-{3-[(4-methyl-4H-1,2,4-triazol-3-yl)methyl]oxetan-3-yl}phenyl)-1H-indazole] | 375 nM | 58.9 nM
25 | Cn1cnnc1CC1(c2cccc(-c3n[nH]c4ccc(F)cc34)c2)COC1 [Example B6, 5-fluoro-3-(3-{3-[(4-methyl-4H-1,2,4-triazol-3-yl)methyl]oxetan-3-yl}phenyl)-1H-indazole] | 437 nM | 71.8 nM
26 | CN(C)c1nc2[nH]nc(-c3cccc([C@H](c4nncn4C)C4CCC4)c3)c2cc1C(F)(F)F [Example E1, 3-{3-[(R)-cyclobutyl(4-methyl-4H-1,2,4-triazol-3-yl)methyl]phenyl}-N,N-dimethyl-5-(trifluoromethyl)-1H-pyrazolo[3,4-b]pyridin-6-amine] | 2320 nM | 268 nM
